Results published in US20060167083A1, “Therapeutic methods and compositions involving isoflav-3-ene and isoflavan structures” (priority 2002, published 2006).
Where “and” joins values, the source holds several entries; their conditions need not be identical. Identical values can stand only once.

Key:
[1] = molecular target: T1, human topo I (Homo sapiens, UniProt P11387); experiment: Topo I-mediated plasmid relaxation assay; assay type: biochemical; conditions: concentrations up to 100 μg/ml, absence of ATP
T1 construct: purchased Topogen (Columbus, Ohio)
T1 sequence (P11387 1-765): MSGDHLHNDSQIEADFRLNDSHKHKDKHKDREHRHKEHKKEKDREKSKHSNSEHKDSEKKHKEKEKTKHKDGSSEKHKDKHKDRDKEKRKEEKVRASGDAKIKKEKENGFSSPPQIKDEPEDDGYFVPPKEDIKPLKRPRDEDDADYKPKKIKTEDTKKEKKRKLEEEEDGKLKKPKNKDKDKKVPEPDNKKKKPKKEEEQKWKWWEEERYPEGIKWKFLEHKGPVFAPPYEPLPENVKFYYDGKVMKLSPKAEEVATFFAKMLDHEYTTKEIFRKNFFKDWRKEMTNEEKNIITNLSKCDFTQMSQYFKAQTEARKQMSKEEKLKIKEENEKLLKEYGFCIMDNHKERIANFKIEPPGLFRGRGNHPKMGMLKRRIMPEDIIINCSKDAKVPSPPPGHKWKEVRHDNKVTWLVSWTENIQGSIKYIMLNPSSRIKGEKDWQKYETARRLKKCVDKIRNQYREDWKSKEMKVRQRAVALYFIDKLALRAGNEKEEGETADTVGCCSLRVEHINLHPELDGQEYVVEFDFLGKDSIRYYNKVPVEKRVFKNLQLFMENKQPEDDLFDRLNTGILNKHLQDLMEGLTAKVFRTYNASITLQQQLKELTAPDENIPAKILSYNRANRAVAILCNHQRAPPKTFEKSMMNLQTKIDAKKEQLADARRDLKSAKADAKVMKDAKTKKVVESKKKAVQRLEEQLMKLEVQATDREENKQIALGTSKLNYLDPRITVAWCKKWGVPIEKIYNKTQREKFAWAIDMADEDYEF
Description: Topo I activity was determined by converting supercoiled pUC8 DNA (SC) into its relaxed from (REL).
For the determination of topoisomerase (topo) I catalytic activity, pUC8 DNA was used as the substrate in a reaction volume of 20 μl containing the following: 10 mM Tris-HCl, pH 7.9, 1 mM EDTA, 150 mM NaCl, 0.1% BSA, 0.1 mM spermidine, 5% glycerol, and 2 units of purified human topo I. The inhibitor, when applicable, was added as indicated, and the reaction was initiated by the addition of the enzyme. Reactions were carried out at 37° C. for 30 min. Gel electrophoresis was performed at 4 V/cm for 5 h in Tris-borate-EDTA buffer. For the quantitative determination of topo I activity, photographic negatives were scanned. The area representing supercoiled DNA, migrating as a single band at the bottom of the gel, was determined. The concentrations of the inhibitor that prevented 50% of the supercoiled DNA from being converted into relaxed DNA (IC50 values) were determined by averaging the data from at least three experiments.

[2] = system: MMP-2; experiment: Northern blot analysis of MMP-2 mRNA in endothelial cells; assay type: cell-based, human; conditions: 10 μg/ml for 18 hours; two experiments; listed as De
Description: Northern blot analysis: HUVEC were plated at 1×10^6 cells per 25 cm^2 flask and grown for 48 hours. Following treatment with DMSO vehicle or De (10 μg/ml final) for 18 hours, total RNA was harvested and purified using TRIZOL reagent (Invitrogen—Life Technologies, Groningen, Netherlands) according to the manufacturer's protocol. Northern blot analysis was performed using 8 μg total RNA transferred onto Hybond-N membranes (Amersham Biosciences, Buckinghamshire, England) and probed with human MMP-2 and GAPDH cDNAs using a Strip-EZ PCR stripAble PCR Probe synthesis and removal Kit (Ambion, Tex., USA).

[3] = system: E selectin; experiment: E selectin expression assay on endothelial cells (FACS); assay type: cell-based, human; conditions: 10 μg/ml 18 hours prior to stimulation; TNF and IL-1
Description: E selectin and VCAM-1 assays: HUVEC were plated at 5×10^5 cells per 6 well dish. Cells were treated with DMSO vehicle or De (10 μg/ml final) for 18 hours prior to TNFα (1 ng/ml) addition. After 4 or 18 hours, cells were washed with PBS and incubated with antibodies against E selectin (Mab49-1B11) or VCAM-1 (Nab51-10C9) for 30 min. Goat F(ab′)2 fragment mouse-IgG(H+L)-FITC antibody (Immunotech, Marseille, France) was then added for 30 min. The cells were then trypsinised and FACS analysed on a Coulter Epics® XL-MCL (Beckman Coulter). Results are expressed as arbitrary units relating to the mean intensity of FITC fluorescence.

Oc1ccc(C2=Cc3ccc(O)cc3OC2)cc1 [Dehydroequol, 4′,7-dihydroxyisoflav-3-ene]
inhibition of topo I-catalysed relaxation of pUC8 DNA [1]: did not inhibit | decrease in level of mRNA for MMP-2 [2]: 68.3% and 46.7% | induction of E selectin on the endothelium [3]: inhibits the induction
